Read-outs that look alike come from different tables or passages of the source.
Experiments:
[1] = target: T1, helicase domain of the Pol θ protein (Homo sapiens, UniProt O75417); assay: Biochemical Activity Assay (ADP Glo Assay) of Pol θ inhibitor, ATPase activity
T1 construct: The helicase domain of the Pol θ protein was purified from insect protein expression system; made in house; host or cells: insect protein expression system

cells = settings: Homo sapiens, DLD-1, 240 h
[2] = ADP-Glo assay, ATPase activity of Pol θ helicase domain, ssDNA substrate, read-out: Biochemical assay IC50
[3] = read-out: Cell viability assay IC50 (nM), CTG assay, CellTiter Glo, read on Day 10, cell line not given
[4] = read-out: Cell viability assay IC50 (nM)

T1 sequence (O75417 102-554 limits assumed): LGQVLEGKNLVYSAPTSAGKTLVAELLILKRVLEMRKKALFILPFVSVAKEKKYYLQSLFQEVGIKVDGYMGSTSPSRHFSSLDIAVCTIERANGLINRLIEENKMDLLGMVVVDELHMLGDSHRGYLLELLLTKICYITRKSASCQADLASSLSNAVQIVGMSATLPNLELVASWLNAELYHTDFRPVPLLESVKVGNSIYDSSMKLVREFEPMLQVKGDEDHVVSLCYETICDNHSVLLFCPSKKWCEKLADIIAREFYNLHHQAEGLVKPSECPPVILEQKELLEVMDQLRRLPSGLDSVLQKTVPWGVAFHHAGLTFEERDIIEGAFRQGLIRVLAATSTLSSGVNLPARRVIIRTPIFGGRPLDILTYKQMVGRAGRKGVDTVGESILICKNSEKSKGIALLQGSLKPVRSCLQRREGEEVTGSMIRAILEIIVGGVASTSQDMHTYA

IC50 [1, 2] [nM]	SMILES	IC50 (cells; [3]) [nM]	IC50 ([1]; Biochemical assay IC50 (nM)) [nM]	IC50 (cells; [4]) [nM]	IC50 ([1]; Biochemical assay IC50 (nM), ADP-Glo assay, ATPase activity of Pol θ helicase domain, ssDNA substrate) [nM]
4.11	COc1cnc(Cl)cc1-c1cc(C)ncc1C(=O)Nc1nc2ncc(N3CCC(C(C)(C)O)CC3)nc2s1 [Example 134]	5.41	–	–	–
5.41	COc1cnc(Cl)cc1-c1cc(C)ncc1C(=O)Nc1nc2ccc(N3CC[C@@H](O)C[C@H]3C)nc2s1 [Example 135]	19.2	–	–	–
25.8	COc1cnc(Cl)cc1-c1cc(C)ncc1C(=O)Nc1nc2ccc(N3CC[C@H](O)C[C@H]3C)nc2s1 [Example 136]	121	–	–	–
25.1	COc1cnc(Cl)cc1-c1cc(C)ncc1C(=O)Nc1nc2ccc(N3CCn4cncc4C3)nc2s1 [Example 137]	171	–	–	–
7.58	COc1cnc(Cl)cc1-c1cc(C)ncc1C(=O)Nc1nc2ccc(N3CCC=CC3=O)nc2s1 [Example 138]	26.1	–	–	–
19.1	COc1cnc(Cl)cc1-c1cc(C)ncc1C(=O)Nc1nc2ccc(N3CCn4ccnc4C3)nc2s1 [Example 139]	121	–	–	–
15.8	COc1cnc(Cl)cc1-c1cc(C)ncc1C(=O)Nc1nc2cnc(N3CC[C@@H](O)C[C@@H]3C)nc2s1 [Example 140]	68.1	–	–	–
8.23	COc1cnc(Cl)cc1-c1cc(C)ncc1C(=O)Nc1nc2cnc(N3CC[C@@H](O)C[C@H]3C)nc2s1 [Example 141]	21.5	–	–	–
4.49	COc1cnc(Cl)cc1-c1cc(C)ncc1C(=O)Nc1nc2cnc(N3CC4(CC(O)C4)C3)nc2s1 [Example 142]	104	–	–	–
23.6	COc1cnc(Cl)c(F)c1-c1cc(C)ncc1C(=O)Nc1nc2cc(F)c(N3CCC(F)(F)CC3)nc2s1 [Example 143]	43	–	–	–
36.7	COc1cnc(Cl)cc1-c1cc(C)ncc1C(=O)Nc1nc2ncc(CN3CCC(O)CC3)cc2s1 [Example 144]	2220	–	–	–
17.6	COc1cnc(Cl)cc1-c1cc(C)ncc1C(=O)Nc1nc2ccc(-c3c(C)nnn3C)nc2s1 [Example 147, 2'-chloro-N-(5-(1,4-dimethyl-1H-1,2,3-triazol-5-yl)thiazolo[5,4-b]pyridin-2-yl)-5'-methoxy-6-methyl-[4,4'-bipyridine]-3-carboxamide]	82.5	–	–	–
4.93	COc1cnc(Cl)cc1-c1cc(C)ncc1C(=O)Nc1nc2ccc(-c3c(C)cnn3C)cc2s1 [Example 148]	4.13	–	–	–
2.29	[2H]C([2H])([2H])n1ncc(C)c1-c1cc2sc(NC(=O)c3cnc(C)cc3-c3cc(Cl)ncc3OC)nc2cn1 [Example 149]	3.54	–	–	–
5.58	COc1cnc(Cl)cc1-c1cc(C)ncc1C(=O)Nc1nc2cnc(-c3c(C)nn(C)c3C#N)cc2s1 [Example 150]	21.5	–	–	–
8.57	COc1cnc(Cl)cc1-c1cc(C)ncc1C(=O)Nc1nc2ccc(-c3c(C)cnn3C)c(F)c2s1 [Example 151]	3.98	–	–	–
3.02	COc1cnc(Cl)cc1-c1cc(C)ncc1C(=O)Nc1nc2cnc(-c3c(C)nn(C)c3C(N)=O)cc2s1 [Example 152]	17.2	–	–	–
24.4	COc1cc(P(C)(C)=O)ccc1-c1cc(C)ncc1C(=O)Nc1nc2cnc(-c3c(C)cnn3C)cc2s1 [Example 153]	545	–	–	–
2.36	COc1cnc(Cl)cc1-c1cc(C)ncc1C(=O)Nc1nc2cnc(-c3c(F)cnn3C)cc2s1 [Example 154]	17.8	–	–	–
2.75	[2H]C([2H])([2H])Oc1cnc(Cl)cc1-c1cc(C)ncc1C(=O)Nc1nc2cnc(-c3c(C)cnn3C)cc2s1 [Example 156]	5.62	–	–	–
5.08	COc1cnc(Cl)cc1-c1cc(C)ncc1C(=O)Nc1nc2cnc(-c3c(C)cnn3C)nc2s1 [Example 157]	32.9	–	–	–
6.31	COc1cnc(Cl)cc1-c1cc(C)ncc1C(=O)Nc1nc2cnc(-c3c(C)nn4ccccc34)cc2s1 [Example 158]	4.64	–	–	–
2.75	COc1cnc(Cl)cc1-c1cc(C)ncc1C(=O)Nc1nc2nnc(-c3c(C)cnn3C)cc2s1 [Example 159]	1170	–	–	–
5.75	COc1cnc(Cl)cc1-c1cc(C)ncc1C(=O)Nc1nc2ncc(-c3c(C)cnn3C)nc2s1 [Example 160]	82.5	–	–	–

IC50 [1, 2] [nM]	SMILES	IC50 (cells; [3]) [nM]	IC50 ([1]; Biochemical assay IC50 (nM)) [nM]	IC50 (cells; [4]) [nM]	IC50 ([1]; Biochemical assay IC50 (nM), ADP-Glo assay, ATPase activity of Pol θ helicase domain, ssDNA substrate) [nM]
3.41	COc1cnc(Cl)cc1-c1cc(C)ncc1C(=O)Nc1nc2cnc(-c3[nH]ncc3C)cc2s1 [Example 161]	121	–	–	–
63.1	COC(=O)c1cc(-c2c(C)cnn2C)cc2sc(NC(=O)c3cnc(C)cc3-c3cc(Cl)ncc3OC)nc12 [Example 162]	233	–	–	–
2.51	COc1cnc(Cl)cc1-c1cc(C)ncc1C(=O)Nc1nc2cnc(-c3c(C)nn(C)c3C)cc2s1 [Example 163]	3.41	–	–	–
16.9	COc1cnc(Cl)cc1-c1cc(C)ncc1C(=O)Nc1nc2c(C(N)=O)cc(-c3c(C)cnn3C)cc2s1 [Example 165]	446	–	–	–
25.1	COc1cnc(Cl)cc1-c1cc(C)ncc1C(=O)Nc1nc2c(C#N)cc(-c3c(C)cnn3C)cc2s1 [Example 166]	68.1	–	–	–
3.74	COc1cnc(Cl)cc1-c1cc(C)ncc1C(=O)Nc1nc2cnc(-c3c(Cl)cnn3C)cc2s1 [Example 167]	5.41	–	–	–
8.84	COc1cnc(Cl)cc1-c1cc(C)ncc1C(=O)Nc1nc2cnc(-c3c(C#N)cnn3C)cc2s1 [Example 169]	89.1	–	–	–
7.13	COc1cnc(Cl)cc1-c1cc(C)ncc1C(=O)Nc1nc2c(CO)cc(-c3c(C)cnn3C)cc2s1 [Example 170]	825	–	–	–
4.93	COc1cnc(Cl)cc1-c1cc(C)ncc1C(=O)Nc1nc2cnc(-c3cncn3C)cc2s1 [Example 171]	13.1	–	–	–
4.64	[2H]C([2H])([2H])c1cnn(C)c1-c1cc2sc(NC(=O)c3cnc(C)cc3-c3cc(Cl)ncc3OC)nc2cn1 [Example 176, 2'-chloro-5'-methoxy-6-methyl-N-(6-(1-methyl-4-(methyl-d3)-1H-pyrazol-5-yl)thiazolo [4,5-c]pyridin-2-yl)-[4,4'-bipyridine]-3-carboxamide]	4.29	–	–	–
–	COc1cnc(Cl)cc1-c1cc(C)ncc1C(=O)Nc1nc2nc(OC)c(-c3c(C)cnn3C)cc2s1 [Example 177, 2'-chloro-N-(6-(1,4-dimethyl-1H-parazol-5-yl)-5-methoxythiazolo[4,5-b]pyridin-2-yl)-5' -methoxy-6-methyl-[4,4'-bipyridine]-3-carboxamide]	–	13.6	121	–
–	COc1cnc(Cl)cc1-c1cc(C)ncc1C(=O)Nc1nc2[nH]c(=O)c(-c3c(C)cnn3C)cc2s1 [Example 178, 2'-chloro-N-(6-(1,4-dimethyl-1H-parazol-5-yl)-5-oxo-4,5-dihydrothiazolo[4,5-b]pyridin-2-yl)-5'-methoxvy-6-methyl-[4,4'-bipyridine]-3-carboxamide]	–	1.63	35.5	–
–	COc1cnc(Cl)cc1-c1cc(C)ncc1C(=O)Nc1nc2c(=O)[nH]c(-c3c(C)cnn3C)cc2s1 [Example 179, 2'-chloro-N-(6-(1,4-dimethyl-1H-parazol-5-yl)-4-oxo-4,5-dihydrothiazolo[4,5-c]pyridin-2-yl)-5'-methoxy-6-methyl-[4,4'-bipyridine]-3-carboxamide]	–	2.43	562	–
2.08	COc1cnc(Cl)cc1-c1cc(C)ncc1C(=O)Nc1nc2ncc(C3COCCO3)cc2s1 (stereo not shown) [Example 182, N-(6-(1,4-dioxan-2-yl)thiazolo[4,5-b]pyridin-2-yl)-2'-chloro-5'-methoxy-6-methyl-[4,4'-bipyridine]-3-carboxamide]	39.8	–	–	–
–	COc1cnc(Cl)cc1-c1cc(C)ncc1C(=O)Nc1nc2nnc(C3=CCC(O)CC3)cc2s1 (stereo not shown) [Example 183, 2'-chloro-N-(3-(4-hydroxycyclohexyl-1-en-1-yl)thiazolo[4,5-c]pyridazin-6-yl)-5'-methox y-6-methyl-[4,4'-bipyridine]-3-carboxamide]	–	3.41	1260	–
15.2	COc1cnc(Cl)cc1-c1cc(C)ncc1C(=O)Nc1nc2ncc(C3=CCC4(CC3)CN(C(C)=O)C4)cc2s1 [Example 184]	482	–	–	–
8.94	COc1cnc(Cl)cc1-c1cc(C)ncc1C(=O)Nc1nc2cnc(C3=CCC4(CC3)CN(C(C)=O)C4)cc2s1 [Example 185]	35.9	–	–	–
–	CCP(=O)(CC)c1ccc(-c2cnc3nc(NC(=O)c4cnc(C)cc4-c4cc(Cl)ncc4OC)sc3c2)cc1 [Example 186]	–	5.58	1520	–
–	CCP(=O)(CC)c1ccc(-c2ccc3nc(NC(=O)c4cnc(C)cc4-c4cc(Cl)ncc4OC)sc3c2)cc1 [Example 187]	–	8.75	271	–
36.7	COc1cnc(Cl)cc1-c1cc(C)ncc1C(=O)Nc1nc2cnc(-c3ccc(S(F)(F)(F)(F)F)cc3)cc2s1 [Example 188]	< 1.52	–	–	–
8.06	CCP(=O)(CC)c1ccc(-c2cc3sc(NC(=O)c4cnc(C)cc4-c4cc(Cl)ncc4OC)nc3cc2F)cc1 [Example 189]	12.9	–	–	–
5.08	COc1cnc(Cl)cc1-c1cc(C)ncc1C(=O)Nc1nc2cc(F)c(-c3ccc(P4(=O)CCCC4)cc3)cc2s1 [Example 190]	3.28	–	–	–
–	COc1cnc(Cl)cc1-c1cc(C)ncc1C(=O)Nc1nc2c(s1)CN(C(=O)c1ccccc1)CC2 [Example 191, N-(5-benzoyl-4.5.6,7-tetrahydrothiazolo[5.4]pyridin-2-yl)-2'-chloro-5'-methoxy-6-methyl-[4,4'-bipyridine]-3-carboxamide]	–	–	521	29.3

— EP4585599A1, “NITROGEN-CONTAINING FUSED RING COMPOUND, INTERMEDIATE THEREOF, PREPARATION METHOD THEREFOR AND USE THEREOF” (Hangzhou Synrx Therapeutics Biomedical Technology Co., Ltd., priority 2022, dated 2024)
